# According to US10407467B2, “Polymyxin derivatives and their use in combination therapy together with different antibiotics” (priority 2013, dated 2019):
# Structures can show the parent of a compound that is named as a salt. Where two headings read alike, the source gives them in different places. Bridge positions count the residues as written; N and C are the ends. Square brackets hold non-standard residues; d marks the D form. Peptide text beside a SMILES is read from it. * marks the point of attachment. ξ: configuration not given here. Acetyl(3-pyridyl) = O=C(Cc1cccnc1)*; X18 = O=C([C@H]1CC[C@H](O)CC1)*; Thr(3ξ) = CC(O)[C@H](N)C(=O)O; Dab = NCC[C@H](N)C(=O)O; X23 = O=C(CCCN1CCOCC1)*; Bz = O=C(c1ccccc1)*
# Legend:
# Format in all cases: cell-based
# [1] = tested on: Pseudomonas aeruginosa; experiment: MIC, sole activity (no second agent); conditions: for MIC: Pseudomonas aeruginosa
# Method: (§1) To evaluate the potency and spectrum of the compounds both alone and in combination with another agent, susceptibility testing was performed against up to four strains of each of the four Gram negative pathogens, Escherichia coli, Pseudomonas aeruginosa, Klebsiella pneumoniae and Acinetobacter baumannii.
# (§2) The inoculum was prepared by making a direct suspension of isolated colonies (selected from an 18-24 hour Mueller-Hinton agar plate) adjusted to the 0.5 McFarland standard.
# (§3) The assays were performed in duplicate.
# (§4) In cases where the duplicate values varied by less than 2-fold, the lower of the two values is reported. If a variation of greater than 2-fold was observed, the assay was considered non-valid. Several of the compounds were subjected to multiple tests, and where this is the case, the MIC reflects the modal value obtained.
# (§5) MICs were determined as described herein, except that a different supplier of Cation-adjusted MHB was used. […] Values are reported relative to Polymyxin B.
# [2] = tested on: Escherichia coli; experiment: MIC, sole activity (no second agent); conditions: for MIC: Escherichia coli
# Method: as §1, §2, §3, §4, §5
# [3] = tested on: Klebsiella pneumoniae; experiment: MIC, sole activity (no second agent); conditions: for MIC: Klebsiella pneumoniae
# Method: as §1, §2, §3, §4, §5
# [4] = tested on: Acinetobacter baumannii; experiment: MIC, sole activity (no second agent); conditions: Table 6A; no second agent; different supplier of Cation-adjusted MHB
# Method: as §1, §2, §3, §4, §5
# [5] = tested on: Pseudomonas aeruginosa; experiment: MIC, compound in combination with a second agent (broth microdilution); conditions: 1:1 (wt:wt) combination with Rifampicin
# Method: as §1
# (§6) Ratios of components in a combination, such as 1:1, refers to a weight to weight ratio. The minimum inhibitory concentration (MIC) refers to the total drug concentration (e.g. test compound plus second agent, such as Rifampicin).
# as §2, §3, §4
# (§7) The minimum inhibitory concentration refers to the total drug concentration (e.g. test compound plus Rifampicin). The compounds are used at equal mass within the combination. The weight refers to the mass of compound as used, for example the Example Compounds are used in their TFA or sulphate salt forms.
# (§8) MICs refer to the total drug concentration. Thus, where a 1:1 combination is used, this is the amount of the test compound plus the second agent. For comparison, the MIC values for the second agent alone are also given.
# [6] = tested on: Klebsiella pneumoniae; experiment: as above; conditions: 1:1 (wt:wt) combination with Rifampicin
# Method: as §1, §6, §2, §3, §4, §7, §8
# [7] = Table 6A, no second agent, different supplier of Cation-adjusted MHB
# [8] = in the absence of Rifampicin, strain ATCC27853
# [9] = in the absence of Rifampicin, strain ATCC25922
# [10] = in the absence of Rifampicin, strain ATCC 4352
# [11] = MIC = total drug concentration, strain CCUG 59626
# [12] = MIC = total drug concentration, strain ATCC-BAA-2146
# [13] = MIC = total drug concentration, strain CCUG-59348
# [14] = MIC = total drug concentration, strain NCTC 13438
# [15] = MIC is total drug concentration
# [16] = NCTC9001, read-out: MIC E. coli NCTC9001
# [17] = CCUG59348, read-out: MIC K. pneumoniae CCUG 59348
# [18] = NCTC13442, read-out: MIC K. pneumoniae NCTC 13442
compound,measurement,setting,value
2-(1- (Aminomethyl)cyclohexyl) ethanoyl Polymyxin B nonapeptide [Example A30],MIC P. aeruginosa ATCC 27853,[1]; [7],0.5 micrograms/mL
same,MIC P. aeruginosa CCUG 59347,[1]; [7],1 micrograms/mL
same,MIC E. coli NCTC 13441,[2]; [7],1 micrograms/mL
same,MIC K. pneumoniae ATCC 4352,[3]; [7],0.5 micrograms/mL
same,MIC K. pneumoniae ATCC BAA-2146,[3]; [7],1 micrograms/mL
same,MIC A. baumannii ATCC BAA-747,[4],8 micrograms/mL
same,MIC A. baumannii NCTC 13424,[4],8 micrograms/mL
2-(1- Hydroxycyclohexyl)ethanoyl polymyxin B nonapeptide [Example A15],MIC P. aeruginosa ATCC 27853,[1]; [7],4 micrograms/mL
same,MIC P. aeruginosa CCUG 59347,[1]; [7],8 micrograms/mL
same,MIC E. coli ATCC25922,[2]; [7],8 micrograms/mL
same,MIC E. coli NCTC 13441,[2]; [7],8 micrograms/mL
same,MIC K. pneumoniae ATCC 4352,[3]; [7],4 micrograms/mL
same,MIC A. baumannii ATCC BAA-747,[4],>8 micrograms/mL
same,MIC A. baumannii NCTC 13424,[4],>8 micrograms/mL
2-(R)-(2-amino-2- cyclohexyl)ethanoyl polymyxin B nonapeptide [Example A38],MIC P. aeruginosa ATCC 27853,[1]; [7],0.5 micrograms/mL
same,MIC P. aeruginosa CCUG 59347,[1]; [7],1 micrograms/mL
same,MIC E. coli ATCC25922,[2]; [7],0.5 micrograms/mL
same,MIC E. coli NCTC 13441,[2]; [7],2 micrograms/mL
same,MIC K. pneumoniae ATCC 4352,[3]; [7],0.5 micrograms/mL
same,MIC K. pneumoniae ATCC BAA-2146,[3]; [7],2 micrograms/mL
same,MIC A. baumannii ATCC BAA-747,[4],1 micrograms/mL
same,MIC A. baumannii NCTC 13424,[4],2 micrograms/mL
2-(RS)-2-aminooctyl polymyxin B decapeptide [Example A5],MIC P. aeruginosa ATCC 27853,[1]; [7],0.25 micrograms/mL
same,MIC P. aeruginosa CCUG 59347,[1]; [7],0.5 micrograms/mL
same,MIC E. coli ATCC25922,[2]; [7],0.5 micrograms/mL
same,MIC K. pneumoniae ATCC 4352,[3]; [7],0.5 micrograms/mL
same,MIC K. pneumoniae ATCC BAA-2146,[3]; [7],0.5 micrograms/mL
same,MIC A. baumannii ATCC BAA-747,[4],1 micrograms/mL
same,MIC A. baumannii NCTC 13424,[4],2 micrograms/mL
"CCCCCCC(O)C(=O)N[C@H](C(=O)N[C@@H](CCN)C(=O)N[C@H]1CCNC(=O)[C@H](C(C)O)NC(=O)[C@H](CCN)NC(=O)[C@H](CCN)NC(=O)[C@H](CC(C)C)NC(=O)[C@@H](CC(C)C)NC(=O)[C@H](CCN)NC1=O)C(C)O (mixture of isomers) [Example 19, 2-(RS)-2- Hydroxyoctanoyl polymyxin E nonapeptide]",MIC P. aeruginosa ATCC 27853,[1]; [8],4 micrograms/mL
same,MIC E. coli ATCC25922,[2]; [9],8 micrograms/mL
same,MIC K. pneumoniae ATCC 4352,[3]; [10],8 micrograms/mL
same,MIC P. aeruginosa CCUG 59626,[5]; [11],1 micrograms/mL
same,MIC K. pneumoniae ATCC-BAA-2146,[6]; [12],2 micrograms/mL
same,MIC K. pneumoniae CCUG-59348,[6]; [13],2 micrograms/mL
same,MIC K. pneumoniae NCTC 13438,[6]; [14],0.5 micrograms/mL
"CC(C)C[C@@H]1NC(=O)[C@@H](Cc2ccccc2)NC(=O)[C@H](CCN)NC(=O)[C@@H](NC(=O)[C@H](CCN)NC(=O)[C@@H](NC(=O)CCCN2CCOCC2)C(C)O)CCNC(=O)[C@H](C(C)O)NC(=O)[C@H](CCN)NC(=O)[C@H](CCN)NC1=O (some centres unmarked) [Example 14, 4- Morpholinylbutanoyl polymyxin B nonapeptide, trifluoroacetate salt] (X23-[Thr(3ξ)][Dab][Dab][Dab][dF]L[Dab][Dab][Thr(3ξ)]; lactam 3-C)",MIC P. aeruginosa ATCC 27853,[1]; [8],1 micrograms/mL
same,MIC E. coli ATCC25922,[2]; [9],4 micrograms/mL
same,MIC K. pneumoniae ATCC 4352,[3]; [10],>32 micrograms/mL
same,MIC P. aeruginosa CCUG 59626,[5]; [11],0.5 micrograms/mL
same,MIC K. pneumoniae ATCC-BAA-2146,[6]; [12],2 micrograms/mL
same,MIC K. pneumoniae CCUG-59348,[6]; [13],16 micrograms/mL
"CC(C)C[C@@H]1NC(=O)[C@@H](Cc2ccccc2)NC(=O)[C@H](CCN)NC(=O)[C@@H](NC(=O)[C@H](CCN)NC(=O)[C@@H](NC(=O)[C@H]2CC[C@H](O)CC2)C(C)O)CCNC(=O)[C@H](C(C)O)NC(=O)[C@H](CCN)NC(=O)[C@H](CCN)NC1=O (stereo partly drawn) [Example 25, trans-4-hydroxycyclohexane carbonyl polymyxin B nonapeptide] (X18-[Thr(3ξ)][Dab][Dab][Dab][dF]L[Dab][Dab][Thr(3ξ)]; lactam 3-C)",MIC P. aeruginosa ATCC 27853,[1]; [8],0.125 micrograms/mL
same,MIC E. coli ATCC25922,[2]; [9],8 micrograms/mL
same,MIC K. pneumoniae ATCC 4352,[3]; [10],4 micrograms/mL
same,MIC P. aeruginosa CCUG 59626,[5]; [11],0.5 micrograms/mL
same,MIC K. pneumoniae ATCC-BAA-2146,[6]; [12],1 micrograms/mL
same,MIC K. pneumoniae CCUG-59348,[6]; [13],8 micrograms/mL
same,MIC K. pneumoniae NCTC 13438,[6]; [14],2 micrograms/mL
"CC(C)C[C@@H]1NC(=O)[C@@H](Cc2ccccc2)NC(=O)[C@H](CCN)NC(=O)[C@@H](NC(=O)[C@H](CCN)NC(=O)[C@@H](NC(=O)c2ccccc2)C(C)O)CCNC(=O)[C@H](C(C)O)NC(=O)[C@H](CCN)NC(=O)[C@H](CCN)NC1=O (some centres unmarked) [Example C3, Benzoyl polymyxin B nonapeptide, sulphate salt, reference compound] (Bz-[Thr(3ξ)][Dab][Dab][Dab][dF]L[Dab][Dab][Thr(3ξ)]; lactam 3-C)",MIC P. aeruginosa CCUG 59626,[5]; [15],1 micrograms/mL
same,MIC K. pneumoniae ATCC-BAA-2146,[6]; [15],2 micrograms/mL
same,MIC K. pneumoniae CCUG-59348,[6]; [15],8 micrograms/mL
same,MIC K. pneumoniae NCTC 13438,[6]; [15],2 micrograms/mL
"CC(C)C[C@@H]1NC(=O)[C@@H](Cc2ccccc2)NC(=O)[C@H](CCN)NC(=O)[C@@H](NC(=O)[C@H](CCN)NC(=O)[C@@H](NC(=O)Cc2cccnc2)C(C)O)CCNC(=O)[C@H](C(C)O)NC(=O)[C@H](CCN)NC(=O)[C@H](CCN)NC1=O (some centres unmarked) [Example C5, 3-pyridyl ethanoyl polymyxin B nonapeptide, reference compound] ({Acetyl(3-pyridyl)}-[Thr(3ξ)][Dab][Dab][Dab][dF]L[Dab][Dab][Thr(3ξ)]; lactam 3-C)",MIC P. aeruginosa CCUG 59626,[5]; [15],0.25 micrograms/mL
same,MIC K. pneumoniae ATCC-BAA-2146,[6]; [15],1 micrograms/mL
same,MIC K. pneumoniae CCUG-59348,[6]; [15],4 micrograms/mL
same,MIC K. pneumoniae NCTC 13438,[6]; [15],2 micrograms/mL
"CC(=O)O[C@H]1C[C@@]2(C)[C@@H](C[C@@H](O)[C@H]3[C@@]4(C)CC[C@@H](O)[C@@H](C)[C@@H]4CC[C@@]32C)/C1=C(\CCC=C(C)C)C(=O)O [Fusidic acid, reference compound]",MIC,"[2]; Table 7I, E. coli ATCC25922, second agent none, read-out: MIC E. coli (ATCC25922)",> 32 µg/mL
same,MIC,"[3]; Table 7I, K. pneumoniae ATCC4352, second agent none, read-out: MIC K. pneumoniae (ATCC4352)",16 µg/mL
"C[C@@H](O)[C@H]1C(=O)N2C(C(=O)O)=C(S[C@@H]3CN[C@H](C(=O)N(C)C)C3)[C@H](C)[C@H]12 [Meropenem, reference compound]",MIC,"[1]; CCUG59626, P. aeruginosa CCUG 59626, second agent none, read-out: MIC P. aeruginosa CCUG 59626",16 µg/mL
same,MIC,"[2]; E. coli NCTC9001, second agent none, read-out: MIC E. coli (NCTC9001)",0.125 µg/mL
same,MIC,"[3]; ATCCBAA1706, K. pneumoniae ATCC BAA-1706, second agent none, read-out: MIC K. pneumoniae ATCC BAA-1706",16 µg/mL
same,MIC,"[3]; CCUG59348, K. pneumoniae CCUG 59348, second agent none, read-out: MIC K. pneumoniae CCUG 59348",> 32 µg/mL
same,MIC,"[3]; NCTC13442, K. pneumoniae NCTC 13442, second agent none, read-out: MIC K. pneumoniae NCTC 13442",16 µg/mL
"Cc1onc(-c2ccccc2)c1C(=O)N[C@@H]1C(=O)N2[C@@H]1SC(C)(C)[C@@H]2C(=O)O [Oxacillin, reference compound]",MIC,"[2]; Table 7G, E. coli ATCC25922, second agent none, read-out: MIC E. coli (ATCC25922)",> 32 µg/mL
same,MIC,"[3]; Table 7G, K. pneumoniae ATCC4352, second agent none, read-out: MIC K. pneumoniae (ATCC4352)",16 µg/mL
"CN(C)c1cc(NC(=O)CNC(C)(C)C)c(O)c2c1C[C@H]1C[C@H]3[C@H](N(C)C)C(O)=C(C(N)=O)C(=O)[C@@]3(O)C(O)=C1C2=O [Tigecycline, reference compound]",MIC,"[1]; CCUG59626, read-out: MIC P. aeruginosa CCUG 59626",16 µg/mL
same,MIC,[2]; [16],0.125 µg/mL
same,MIC,[3]; [17],2 µg/mL
same,MIC,[3]; [18],2 µg/mL
"CN[C@H](CC(C)C)C(=O)N[C@H]1C(=O)N[C@@H](CC(N)=O)C(=O)N[C@H]2C(=O)N[C@H]3C(=O)N[C@H](C(=O)N[C@H](C(=O)O)c4cc(O)cc(O)c4-c4cc3ccc4O)[C@H](O)c3ccc(c(Cl)c3)Oc3cc2cc(c3O[C@@H]2O[C@H](CO)[C@@H](O)[C@H](O)[C@H]2O[C@H]2C[C@](C)(N)[C@H](O)[C@H](C)O2)Oc2ccc(cc2Cl)[C@H]1O [Vancomycin, reference compound]",MIC,[2]; [16],> 32 µg/mL
same,MIC,[3]; [17],> 32 µg/mL
same,MIC,"[3]; CCUG59626, read-out: MIC K. pneumoniae CCUG 59626",> 32 µg/mL
same,MIC,[3]; [18],> 32 µg/mL
